Reference: publication PMC4519256, “Expanding the Described Metabolome of the Marine Cyanobacterium Moorea producens JHB through Orthogonal Natural Products Workflows” (PLoS ONE, 2015)

Columns and labels:
[1] = test system: veratridine-stimulated Ca2+ influx in neocortical neurons; test: Antagonism of veratridine-stimulated Ca2+ influx in neocortical neurons (fluo-3); assay type: cell-based, Swiss-Webster mice; settings: for IC50: Neuron, primary mouse neocortical neurons, three-parameter logistic fit
Experimental: (§1) Primary cultures of neocortical neurons were obtained from embryonic day 16 Swiss-Webster mice as described elsewhere. Briefly, pregnant mice were euthanized by CO2 asphyxiation and embryos were removed under sterile conditions. Neocortices were collected, stripped of meninges, minced by trituration with a Pasteur pipette, and treated with trypsin for 25 min at 37°C. The cells were then dissociated by two successive trituration and sedimentation steps in soybean trypsin inhibitor and DNase containing isolation buffer, centrifuged, and resuspended in Eagle’s minimal essential medium with Earle’s salt (MEM) and supplemented with 1 mM L-glutamine, 10% fetal bovine serum, 10% horse serum, 100 IU/mL penicillin, and 0.10 mg/mL streptomycin (pH 7.4). Cells were plated onto poly-L-lysine-coated 96-well (9 mm), clear-bottomed, black-well culture plates (MidSci, St. Louis, USA) at a density of 1.5 × 10^5 cells/well. Cells were then incubated at 37°C in a 5% CO2 and 95% humidity atmosphere. The culture media was changed every other day, starting from day 5 in-vitro using a serum-free growth medium containing Neurobasal Medium supplemented with B-27, 100 IU/mL penicillin, 0.10 mg/mL streptomycin, and 0.2 mM L-glutamine. Neocortical cultures were used in experiments between 10–11 days in-vitro. All animal use protocols were approved by the Institutional Animal Care and Use Committee (IACUC) of Creighton University.
Cells grown in 96-well plates were used for determination of intracellular Ca^2+ concentration ([Ca^2+]i). Briefly, the growth medium was removed and replaced with dye-loading medium (100 μL per well) containing 4 μM fluo-3 AM and 0.04% pluronic acid in Locke's buffer. […] The cells were incubated in the presence or absence of jamaicamides for 5–7 minutes at 37°C in a 5% CO2 and 95% humidity atmosphere prior to transfer to a FLEX Station II (Molecular Devices) benchtop scanning fluorescence chamber. The fluorescence measurements were performed at 37°C. The cells were excited at 488 nm and Ca^2+-bound fluo-3 emission was recorded at 538 nm at 2 s intervals. After recording baseline fluorescence for 60 s, either vehicle or veratridine was added to each well at a rate of 26 μL/s; the fluorescence was then monitored for an additional 200 s.
(§2) The Fluo-3 and SBFI raw fluorescence emission data were exported to an Excel work sheet. The Fluo-3 fluorescence or SBFI fluorescence ratios (340/380) versus time were analyzed and concentration-response graphs generated using GraphPad Prism software (GraphPad Software Inc., San Diego, CA).

[2] = test system: voltage-gated sodium channels; test: Antagonism of veratridine-stimulated Na+ influx in neocortical neurons (SBFI); assay type: cell-based, Swiss-Webster mice; settings: for IC50: primary mouse neocortical neurons, three-parameter logistic fit
Experimental: as §1
[Na^+]i measurement and full in-situ calibration of sodium-binding benzofuran isophthalate (SBFI) fluorescence ratio were performed as described previously. Cells grown in 96-well plates were washed four times with Locke's buffer using an automated microplate washer (BioTek Instruments, Winooski, VT). After measuring the background fluorescence of each well, cells were incubated for 1 h at 37°C with dye-loading buffer (100 μL/well) containing 10 μM SBFI-AM (Invitrogen) and 0.02% Pluronic F-127 (Invitrogen). Cells were washed five times with Locke's buffer, leaving a final volume of 150 μL in each well. Jamaicamide addition and preincubation was as described above for Ca^2+ concentration determination. […] Fluorescence readings were taken once every 5 s for 60 s to establish the baseline, then either vehicle (control) or veratridine was added and fluorescence was monitored for an additional 260 s. After correcting for background fluorescence, SBFI fluorescence ratios (340/380) and concentration-response graphs were generated.
as §2

sodium channel = settings: at a concentration of 5 μM, Neuro-2a cells; cited from earlier work
[3] = test system: human carcinoma of the nasopharynx (KB) cell line; parameters: method as in PMID 15974628; settings: cited from earlier work
[4] = test system: human small cell lung cancer (NCI-H187) cell line; parameters: method as in PMID 15974628; settings: cited from earlier work
actin = test system: actin; parameters: method as in PMID 12088429; settings: cited from earlier work

Compound	IC50 [1] [µM]	IC50 [2] [µM]	Sodium channel blocking activity (sodium channel)	Potency relative to the other two jamaicamides tested (Ca2+ influx) ([1]; versus 3 and 12)	Potency relative to the other two jamaicamides as a sodium channel blocker (Na+ influx) ([2]; versus 3 and 12, neocortical neurons)	LD50 [3] [µM]	LD50 [4] [µM]	Effect on actin polymerization (actin)
C#CCCC/C(=C\Cl)CCC(C)/C=C/CCC(=O)NCC/C(=C\C(=O)N1C(=O)C=C[C@@H]1C)OC (stereo partly drawn) [compound 3, jamaicamide B]	6.88	3.6	sodium channel blocking activity	–	–	–	–	–
CO/C(=C/C(=O)N1C(=O)C=C[C@@H]1C)CCNC(=O)CC/C=C/C(C)CC/C(=C/Cl)CCCC#CBr (stereo partly drawn) [compound 2, jamaicamide A]	1.82	1.1	sodium channel blocking activity	2–3 times	2-3 times	–	–	–
CC1C(=O)OC(C(C)(C)O)c2nc(cs2)C(=O)OC(C)(C)C(O)c2nc(cs2)C(=O)OC1CCCC(C)(Cl)Cl (stereo not drawn) [compound 5, Hectochlorin B]	–	–	–	–	–	0.31	0.32	–
CC(=O)O[C@@H]1c2nc(cs2)C(=O)O[C@@H](CCCC(C)(Cl)Cl)[C@H](C)C(=O)O[C@@H](C(C)(C)O)c2nc(cs2)C(=O)OC1(C)C [compound 1, hectochlorin]	–	–	–	–	–	0.86	1.20	enhances actin polymerization
COC(=CC(=O)N1C(=O)C=CC1C)CCNC(=O)CCC=CC(C)CCC(=CCl)CCCC#CI (stereo not drawn) [compound 12, jamaicamide F]	4.3	2.3	–	–	–	–	–	–
